In US20070249501A1 (priority 2004, published 2007):

Tests used:
[1] = tested on: microbial populations in soil; format: cell-based
[2] = tested on: Fusarium oxysporum f. sp. radicis-lycopersici (FORL); format: cell-based
Sclerotium rolfsii = format: cell-based
[3] = tested on: root-knot nematode Meloidogyne javanica; conditions: in vivo
[4] = tested on: tomato (cv. 870) seedlings; conditions: in vivo

Row | Compound | reduction of microbial populations in soil [1] | other results
1 | OCC(CBr)(CBr)CBr [TBNPA, tribromoneopentyl alcohol] | none of the tested industrial biocides was capable of significantly reducing microbial populations in soil | 
2 | O=[N+]([O-])CBr [monobromonitromethane, bromonitromethane] |  | control of FORL in soil (percent survival, FIG. 6) [2]: effective in controlling soil-borne fungi; control of S. rolfosii in soil (percent survival, FIG. 6) (Sclerotium rolfsii): effective in controlling soil-borne fungi
3 | BrC(Br)Br [BF, bromoform] | none of the tested industrial biocides was capable of significantly reducing microbial populations in soil | 
4 | ClC=CCCl [1,3-dichloropropene] |  | galling index of tomato plant roots [3]: zero
5 | tetramethylammonium bromide [TMBr] | none of the tested industrial biocides was capable of significantly reducing microbial populations in soil | 
6 | O=S([O-])S(=O)(=O)[O-].[K+].[K+] [PMS, potassium metabisulfite] | none of the tested industrial biocides was capable of significantly reducing microbial populations in soil | root system development in treated soil [4]: substantially stunted root system
7 | C[N+](=O)[O-] [nitromethane] |  | control of FORL in soil (percent survival, FIG. 6) [2]: no effect in controlling pests; control of S. rolfosii in soil (percent survival, FIG. 6) (Sclerotium rolfsii): no effect in controlling pests
8 | tetrabromoethane [TBE] | none of the tested industrial biocides was capable of significantly reducing microbial populations in soil | 
9 | CN1CSC(=S)N(C)C1 [Dazomet, dazomet] |  | effect on population densities of FORL, Verticillium dahliae, Macrophomina phaseolina and Streptomyces spp. in soil (FIG. 3) [1]: the effect of bromopicrin was similar to the effect of the commercial fumigant Basamid
10 | COc1ccc(C=CC(=O)O)cc1 [MCA, methoxy cinnamic acid] | none of the tested industrial biocides was capable of significantly reducing microbial populations in soil | 
11 | ClCCBr [BCE, ethylene bromochloride] | none of the tested industrial biocides was capable of significantly reducing microbial populations in soil | root system development in treated soil [4]: substantially stunted root system
12 | OCC(CO)(CBr)CBr [DBNPG, dibromoneopentyl glycol] | none of the tested industrial biocides was capable of significantly reducing microbial populations in soil | 
